Data on 86 molecules can be found in a melting point compilation (Tetko et al.; mined from patent text by program, amines drawn as free bases though some values may be those of a salt).

Bounds are passed on as bounds.

A word on the melting point: it is the temperature of the solid-liquid transition. `CNC(=O)OCc1c(COC(=O)NC)c(-c2ccc(OC)cc2)n2c1Cc1cc(OC)ccc1-2` had a melting point of 110 to 112 °C.

Molecule `COc1ccc(C2CCc3cc(C)ccc3C2=O)cc1` (stereo unspecified) showed a melting point of 80 to 82 °C.

In turn, `CC(=O)NC[C@H]1CN(c2ccc(N3CCC4(CC3)CC4(C#N)C#N)cc2)C(=O)O1` registered a melting point of 172 to 174 °C. `COCc1nc2c(NCc3c(C)cccc3C)cc(C(=O)N(C)C)cc2n1C`: the melting point fell in the range of 156 to 157 °C. The figure for `Cc1onc(-c2ccc(Cl)cc2)c1CCl` is 91 to 92 °C. The figure for `COc1ccccc1OCC(O)CNc1nc(-c2ccccc2)nc2ccccc12` (stereo unspecified) is 138 to 140 °C; for `CCN(CC)OCc1cc(C(C)(C)C)c(O)c(C(C)(C)C)c1` it is 129 to 137 °C; for `O=C1c2c(Cl)cccc2-n2cnc(-c3nc(C4CCCC4)no3)c2[C@@H]2CCCN12` it is 177 to 178 °C. `COC(=O)c1ccc(OCC(N)=O)c([N+](=O)[O-])c1` gave a melting point of 185 to 187 °C. In turn, `COC(=O)c1ccccc1-n1c(CCl)nc2c(OC)cccc2c1=O` came in with a melting point of 208 to 210 °C. Molecule `CC(=O)Oc1c(C(C)C)cc(-c2c3ccccc3cc3sc(C)c(C)c23)cc1C(C)C` registered a melting point of 243 to 245 °C. In turn, `c1ccc(Nc2nccc(-c3ccc(-c4ccc(N(c5ccccc5)c5ccccc5)cc4)cc3)n2)cc1` yielded a melting point of over 300 °C. The figure for `CC(C)N1CCOC(COc2cccc3c2CC=C3)C1` (stereo unspecified) is 107 to 109 °C; for `CC(C)(C)NC(=O)NC(Cc1ccccc1)C(O)C(O)C(Cc1ccccc1)NC(=O)NC(C)(C)C` (stereo unspecified) it is 193 to 196 °C. The figure for `COn1c(C)nc2c(NCc3c(C)cccc3C)cc(Br)cc21` is 171 to 172 °C. Molecule `CC(C#Cc1cccc(Oc2cccs2)c1)N(O)C(N)=O` (stereo unspecified) came in with a melting point of 110 to 112 °C. As for `CCOC(=O)C(C)c1cnc(Cl)c2cc(OC)ccc12` (stereo unspecified), the figure is 126 to 128 °C; as for `CCCCCCCCOc1ccc(-c2ccc(C(=O)Oc3ccc(C(C)(Br)C(=O)OC)cc3)cc2)cc1` (stereo unspecified), 104 to 105 °C; as for `CCOC(=O)C(=O)CC(=O)c1cn(Cc2ccccc2F)c2cc(Cl)ccc2c1=O`, 173 to 175 °C. On to `COc1c(C)c(N2CCN(c3ccc(C)cc3)CC2)c(C)c2c1OC(C)C2` (stereo unspecified), for which the melting point lay within 82 to 84 °C.

Molecule `Cc1c(NC(=O)c2ccc(CC(=O)c3ccccc3)cc2)ccc2cc(CN3CCCC3)cnc12` yielded a melting point of 187 °C. As for `Nc1ncnc2c1c(-c1ccccc1)cn2-c1cccc(OCCCl)c1`, the melting point was 166 to 168 °C. The figure for `O=C(O)Cc1cc(C=Cc2ccc(C(=O)O)cc2)ccc1O` is over 260 °C; for `COc1cccc2c1nc(C(F)F)n2-c1nc(N2CCOCC2)nc(N2CCC(NS(=O)(=O)C(F)(F)F)CC2)n1` it is 282 to 285 °C. For `COc1cc(C2C(=O)N(C)Cc3cc4c(cc32)OCCO4)cc(OC)c1OC` (stereo unspecified), the melting point was 148 to 149 °C. As for `N#CSc1sc(NC(=O)c2cccc(C(F)(F)F)c2)nc1C(F)(F)F`, the figure is 167 to 168 °C; as for `COc1ccc2c(-c3c(-c4ccccn4)nn4c3CCCCC4)ccnc2c1`, 127 to 129 °C; as for `N#CCCNC(=O)c1cccc(-c2cccc3nn(Cc4cccc(C(F)(F)F)c4)cc23)c1`, 187 to 188 °C. `CS(=O)(=O)N(N(CCCl)S(=O)(=O)c1ccccc1)S(C)(=O)=O` displayed a melting point of 114 to 115 °C. In turn, `Cc1nn(CCCl)c(-c2ccc(F)cc2)c1-c1ccc2c(c1)NC(=O)CO2` registered a melting point of 216 °C. `CCOC(=O)c1c(N(Cc2c(F)cccc2F)C(=O)OCC)sc(-c2ccc([N+](=O)[O-])cc2)c1CBr` showed a melting point of 105 to 108 °C. In turn, `COCc1cc2c(s1)CCCc1cc(=O)n(-c3ccc(OC)cc3)nc1-2` had a melting point of 115 to 117 °C. `COc1ccc(-c2nc(NC(C)=O)sc2-c2ccnc(NC(C)=O)c2)cc1`: the melting point was 262 to 264 °C.

`CCOc1ccc([N+](=O)[O-])c(Nc2ccc(OC)cc2)c1` displayed a melting point of 109 °C. Turning to `CCN(CC)CCNC(=O)c1cc(Cl)c2cc(I)ccc2n1`, the melting point was 64 to 66 °C. The figure for `O=C(O)c1cc(O)c(C(=O)c2ccccc2)c([N+](=O)[O-])c1` is 264 to 266 °C; for `O=C(CO)c1ccc(C2CCCCC2)cc1` it is 104 to 106 °C; for `COc1ccc(-n2nc(O)c3c(c2=O)Cc2ccc(Cl)cc2N3)c(C)c1` it is 264 to 266 °C.

In turn, `CC(C)Cn1cnc2c1c1ccccc1n1nnnc21` registered a melting point of 208 to 212 °C.

Consider `CCOC(=O)c1c(CCO)nc2cc(OC)c(OC)cc2c1-c1ccc(OC)c(OC)c1`, for which the melting point fell in the range of 150 to 151 °C. Molecule `COc1c(C)c(NC(=O)CC(C)(C)C)c2c(c1C)C(c1ccc(C(C)C)cc1)C(C)(C)O2` (stereo unspecified) came in with a melting point of 140 to 141 °C. The figure for `O=C(O)c1nn(-c2c(Cl)cc(C(F)(F)F)cc2Cl)cc1OC(F)(F)C(F)Cl` (racemic) is 149 to 159 °C; for `Cn1c(=O)c2c(ncn2CN2CCCC2)n(C)c1=O` it is 105 to 108 °C. The figure for `N#CC(Cl)=C(Cl)S(=O)(=O)c1ccccc1` is 72 °C. Regarding `O=[N+]([O-])c1ccc(C=Cc2ccc(N3CCOCCOCCOCCOCCOCC3)cc2)c([N+](=O)[O-])c1`, the melting point is 90 to 91 °C. As for `Fc1cc(F)c(F)c(N=C2NCCN2)c1F`, the melting point was in the range of 147 to 148 °C. `N#Cc1cc([N+](=O)[O-])c(N)cc1F` came in with a melting point of 197 to 199 °C. As for `O=C(c1ccccc1)c1cc(-c2ccc(Cl)cc2)c(N2CCOCC2)s1`, the figure is 180 °C; as for `CCOC(=O)c1cn(-c2nc(N)c(F)cc2F)c2c(F)c(F)c(F)c(F)c2c1=O`, 223 to 230 °C. As for `O=S(=O)(NCCCCOc1ccc(-n2cnnn2)cc1)c1cccc2nsnc12`, the figure is 142 to 143 °C. The figure for `O=c1[nH]c2ccccc2c2nc(-c3ccccc3)cn12` is 278 to 280 °C; for `CC(C)(C)c1cc(-c2nnc(NC(N)=O)s2)cc(C(C)(C)C)c1O` it is over 270 °C. Turning to `Nc1cc2c(cc1C(=O)CNC(=O)C(F)(F)F)OCO2`, the melting point was in the range of 219 to 220 °C. The figure for `CC(C)N1C(=O)C(NC(=O)Cc2cc(Cl)cc(Cl)c2)C(=O)N(CC(F)(F)F)c2ccccc21` (stereo unspecified) is 185 to 186 °C.

`CCCCN(CCCCO)c1ccc(C=Cc2ccc(C=CC3=C(C#N)C(=C(C#N)C#N)OC3(C)C)s2)c(OCc2ccccc2)c1` came in with a melting point of 216 to 217 °C.

In the case of `CC1(C)CC(N=[N+]=[N-])c2cc(C#N)ccc2O1` (stereo unspecified), the melting point lay within 63 to 64 °C.

Molecule `CSC(=NC(=O)c1ccccc1)N1CC=C(c2cccc(C(F)(F)F)c2)n2ncc(C(N)=O)c21` registered a melting point of 172 to 175 °C. The molecule `CC(C)NC1CCn2c(CCc3ccccc3)nc3cccc1c32` (stereo unspecified) had a melting point of 95.5 to 97.7 °C. The figure for `CN1Cc2ccc(OCCCCN3CCN(c4cccc5ccccc45)CC3)nc2NC1=O` is 180 to 182 °C; for `COC(=O)c1ccc(CC(C)(C)NCC(O)c2ccccc2)cc1` (stereo unspecified) it is 125 °C. Consider `COc1ccc(C(O)CN2CCN(c3cccccc3=O)CC2)cc1OC` (stereo unspecified), for which the melting point lay in the range of 122 to 124 °C. The figure for `CC(C)OC(=O)N1c2ccccc2Sc2cc(O)c3ccccc3c21` is 205 to 206 °C. The figure for `CNC(=O)Nc1nc(C(C)c2ccc(-c3ccccc3)c(F)c2)cs1` (stereo unspecified) is 208 to 209 °C. Molecule `CCOC(=O)C(=Cc1cccc2ccccc12)c1csc(N)n1` yielded a melting point of 155 to 157 °C. The figure for `CCc1c(-c2cc(C)c(O)c(C)c2)[nH]c2ccc(OC)cc12` is 176 to 178 °C; for `Cc1cccc(CCOc2ccc([N+](=O)[O-])cc2)n1` it is 61 to 62 °C. The figure for `COc1ncc(C(=O)Nc2c(F)cncc2F)cc1OC1CCCC1` is 210 to 211 °C; for `CC(C)COc1ccccc1C(=N)N` it is 49 to 51 °C. As for `ClC1=Nc2nc(C3CCCC3)n(Cc3ccccc3)c2C2=N[C@H](Cc3ccccc3)CN12`, the figure is 124 to 125 °C; as for `CCc1cc(NCc2ccc(-n3cccc3-c3nnn[nH]3)cc2)n2nccc2n1`, 129 to 130 °C; as for `O=Cc1ccc(Sc2nc3cc(Cl)c(Cl)cc3[nH]2)o1`, 170 °C. In turn, `CC(C)c1ccc(C(=O)[C@@H]2C[C@H]2c2ccccc2)c(C(C)C)c1OS(N)(=O)=O` (relative stereo) returned a melting point of 166 to 168 °C. As for `CCOC(=O)c1ccc(-c2coc(-c3ccc(C(F)(F)F)cc3)n2)cc1`, the figure is 168 to 170 °C; as for `O=C(NC1=NN(c2ccc(Cl)c(Cl)c2)CC1)C(F)(F)F`, 181 to 183 °C; as for `Cc1ccc(C(=O)c2ccc(Cc3ccc(NS(C)(=O)=O)cc3C#N)n2C)cc1`, 171 to 172 °C. As for `c1csc(-c2nc3ccc(N4CCC(N5CCCC5)CC4)nn3c2-c2ccncc2)c1`, the figure is 85 °C; as for `CC(C)(C)OC(=O)N(O)C(=O)CCN`, 85 to 87 °C; as for `Cc1[nH]c(C=O)c(C)c1C(=O)NCC1CCCCN1` (stereo unspecified), 107 to 115 °C. Molecule `COC(=O)C(CCC(C)(C)Cl)N(C)S(=O)(=O)NC(=O)OCc1ccccc1` (stereo unspecified) displayed a melting point of 77 to 78 °C. For the molecule `CCOC(=O)C=Cn1c(=O)n2nc(C(=O)OCC)cc2c2cc(OC)ccc21`, the melting point lay in the range of 153 to 154 °C. The figure for `O=c1[nH]nc2n1-c1ccc(Cl)nc1C(c1ccccc1Cl)=NC2O` (stereo unspecified) is 260 to 262 °C; for `CC(C)Oc1ccc2c(c1)N(C)C(=O)N(c1ccc(CC(=O)O)cc1)S2(=O)=O` it is 232 to 233 °C; for `COC(=O)c1ccccc1Sc1ccccc1OC` it is 82 to 84 °C. For the molecule `c1ccc(CN2CCCC3(C2)OC(c2ccccc2)(c2ccccc2)c2ccccc23)cc1` (stereo unspecified), the melting point fell in the range of 144 to 146 °C. The figure for `Cc1[nH]c(=O)ccc1-c1ccc(O)c([N+](=O)[O-])c1` is 260 to 262 °C; for `CCc1nn(Cc2ccccn2)c2c(=O)[nH]c(-c3cc(S(C)(=O)=O)ccc3OCCOC)nc12` it is 166 to 167 °C.
